Drawing on US8883782B2, “Spiro-tetracyclic ring compounds as beta-secretase modulators and methods of use” (Amgen Inc., priority 2010, dated 2014), this text covers IC50 for 27 molecules.

Experiment [1] has as its target Beta Secretase enzyme (BACE) (Homo sapiens, UniProt P56817). The experiment in a line: In vitro enzymatic BACE FRET (fluorescence resonance energy transfer) assay. The class given is biochemical. As to conditions: average IC50, enzyme assay; read-out: BACE 1 FRET assay. In short, it runs like this:
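Acetate buffer (0.05 M, pH 4.2), 10% DMSO final, 100 uM nonionic detergent genapol. Substrate addition (50 nM FRET peptide) initiates; one-hour incubation; Tris raises pH to neutrality before fluorescence measurement.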

Experiment [2] deals with Aβ40 in conditioned medium of cells stably expressing Amyloid Precursor Protein (APP). Briefly: In vitro BACE cell-based assay (Aβ40 in conditioned medium, sandwich ELISA). The following applies: Homo sapiens, read-out: HEK cell assay. In short, it runs like this: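 Secreted Aβ40 is captured with pAb40 and detected with biotinylated 6E10, read by europium time-resolved fluorescence. IC50 comes from percent inhibition versus concentration.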

Setting [3] is: HEK293, average IC50, HEK cells.

Read-outs that look alike come from different tables or passages of the source.

Sequence of Beta Secretase enzyme (BACE) (P56817 46-501, species assumed): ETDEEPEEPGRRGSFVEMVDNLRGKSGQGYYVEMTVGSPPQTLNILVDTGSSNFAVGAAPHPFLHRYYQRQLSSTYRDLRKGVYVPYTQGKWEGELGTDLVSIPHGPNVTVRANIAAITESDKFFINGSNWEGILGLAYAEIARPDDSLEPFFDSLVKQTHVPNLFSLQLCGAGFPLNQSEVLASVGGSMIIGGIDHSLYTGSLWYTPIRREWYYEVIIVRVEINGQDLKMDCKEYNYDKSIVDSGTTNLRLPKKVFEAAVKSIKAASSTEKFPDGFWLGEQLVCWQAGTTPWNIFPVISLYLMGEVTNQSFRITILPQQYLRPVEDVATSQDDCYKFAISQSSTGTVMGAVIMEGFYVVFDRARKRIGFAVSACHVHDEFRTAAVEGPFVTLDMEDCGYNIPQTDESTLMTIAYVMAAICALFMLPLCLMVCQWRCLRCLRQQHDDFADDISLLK

As for `CC#Cc1cncc(-c2ccc3c(c2)C2(COC(N)=N2)c2cc(C4CCOCC4)nc(F)c2O3)c1` (stereo not drawn) [Example 750, 1-fluoro-7-(5-(1-propyn-1-yl)-3-pyridinyl)-3-(tetrahydro-2H-pyran-4-yl)spiro[chromeno[2,3-c]pyridine-5,4′-[1,3]oxazol]-2′-amine], the IC50 in experiment [1] is 0.0007 µM; in experiment [2] (HEK293, average IC50), 0.004 µM.

As to `Cc1ccnn1-c1cc(F)c2c(c1)[C@]1(COC(N)=N1)c1cc(O)ccc1O2` [Example 631, (4S)-2-amino-5′-fluoro-7′-(5-methyl-1H-pyrazol-1-yl)spiro[1,3-oxazole-4,9′-xanthen]-2′-ol], the IC50 in experiment [1] is 0.0214 µM; in experiment [2] (setting [3]), 0.184 µM.

`NC1=N[C@@]2(CO1)c1cc(-c3cncc(C#CCO)c3)ccc1Oc1cnc(-c3ccnc(F)c3)cc12` [Example 825, 3-(5-((5S)-2′-amino-3-(2-fluoro-4-pyridinyl)spiro[chromeno[2,3-c]pyridine-5,4′-[1,3]oxazol]-7-yl)-3-pyridinyl)-2-propyn-1-ol]: the IC50 in experiment [1] came to 0.0003 µM; in experiment [2] (HEK293, average IC50), 0.006 µM.

In the case of `NC1=N[C@@]2(CO1)c1cc(-c3c(F)ccnc3F)ccc1Oc1cnc([C@@H]3CCCOC3)cc12` [Example 912, (5S)-7-(2,4-difluoro-3-pyridinyl)-3-((3S)-tetrahydro-2H-pyran-3-yl)spiro[chromeno[2,3-c]pyridine-5,4′-[1,3]oxazol]-2′-amine], the IC50 was determined as 0.0251 µM in experiment [1] and 0.338 µM in experiment [2] (setting [3]).

Take `CC1(COc2cc(F)c3c(c2)[C@]2(COC(N)=N2)c2cc(-c4ccc(F)nc4)ccc2O3)COC1` [Example 266, (4S)-4′-fluoro-7′-(6-fluoro-3-pyridinyl)-2′-((3-methyl-3-oxetanyl)methoxy)spiro[1,3-oxazole-4,9′-xanthen]-2-amine]: the IC50 in experiment [1] came to 0.0022 µM; in experiment [2] (HEK293, average IC50), 0.0068 µM.

Consider `NC1=N[C@@]2(CO1)c1cc(-c3cnccn3)ccc1Oc1c(F)cc(C3CCOCC3)cc12` [Example 935, (4S)-4′-fluoro-7′-(2-pyrazinyl)-2′-(tetrahydro-2H-pyran-4-yl)spiro[1,3-oxazole-4,9′-xanthen]-2-amine], for which the IC50 came out at 0.0066 µM in experiment [1] and 0.082 µM in experiment [2] (setting [3]).

`CC(C)(C)COc1cc2c(cn1)Oc1ccc(-c3cccnc3F)cc1C21COC(N)=N1` (stereo not drawn) [Example 102, 7-(2-fluoropyridin-3-yl)-3-(neopentyloxy)-5′H-spiro[chromeno[2,3-c]pyridine-5,4′-oxazol]-2′-amine 2,2,2-trifluoroacetate]: the IC50 in experiment [1] was 0.0011 µM; in experiment [2] (setting [3]), 0.0262 µM.

For `COc1cccc(-c2ccc3c(c2)[C@@]2(COC(N)=N2)c2cc(C4=CCOCC4)cnc2O3)c1` [Example 322, (5S)-3-(3,6-dihydro-2H-pyran-4-yl)-7-(3-methoxyphenyl)spiro[chromeno[2,3-b]pyridine-5,4′-[1,3]oxazol]-2′-amine], the IC50 in experiment [1] is 0.0036 µM; in experiment [2] (HEK293, average IC50) it was 0.0261 µM.

As to `NC1=N[C@]2(CO1)c1cc(-c3cccnc3F)ccc1Oc1cc(OC(F)(F)F)c(-c3ccnc(F)c3)cc12` [Example 990, (4R)-7′-(2-fluoro-3-pyridinyl)-2′-(2-fluoro-4-pyridinyl)-3′-(trifluoromethoxy)spiro[1,3-oxazole-4,9′-xanthen]-2-amine], the IC50 in experiment [1] was found to be 8.22 µM; in experiment [2] (HEK293, average IC50), 7.22 µM.

`NC1=N[C@@]2(CO1)c1cc(-c3cncc(F)c3)ccc1Oc1c2cc(C2=CCOCC2)nc1F` [Example 615, (5S)-3-(3,6-dihydro-2H-pyran-4-yl)-1-fluoro-7-(5-fluoro-3-pyridinyl)spiro[chromeno[2,3-c]pyridine-5,4′-[1,3]oxazol]-2′-amine]: the IC50 in experiment [1] was determined as 0.0003 µM; in experiment [2] (setting [3]), 0.002 µM.

As for `CC(C)(C)COc1ccc2c(c1)[C@@]1(COC(N)=N1)c1cc(C3=CCOC(C)(C)C3)cnc1O2` [Example 504, (5S)-3-(2,2-dimethyl-3,6-dihydro-2H-pyran-4-yl)-7-(2,2-dimethylpropoxy)spiro[chromeno[2,3-b]pyridine-5,4′-[1,3]oxazol]-2′-amine], the IC50 in experiment [1] stood at 0.0076 µM; in experiment [2] (setting [3]), 0.0297 µM.

`COc1ccc2c(c1)[C@@]1(COC(N)=N1)c1cc(C3(O)CCOCC3)cc(F)c1O2` [Example 938, 4-((4S)-2-amino-4′-fluoro-7′-methoxyspiro[1,3-oxazole-4,9′-xanthen]-2′-yl)tetrahydro-2H-pyran-4-ol]: the results for the IC50 in experiment [1] and in experiment [2] (setting [3]) were 4.43 µM and 3.85 µM, respectively.

As for `CC#Cc1cncc(-c2ccc3c(c2)[C@@]2(COC(N)=N2)c2cc(Cl)nc(F)c2O3)c1` [Example 761, (5S)-3-chloro-1-fluoro-7-(5-(1-propyn-1-yl)-3-pyridinyl)spiro[chromeno[2,3-c]pyridine-5,4′-[1,3]oxazol]-2′-amine], the IC50 in experiment [1] came to 0.0009 µM; in experiment [2] (HEK293, average IC50) it was 0.185 µM.

For `NC1=N[C@@]2(CS1)c1cc(-c3cccnc3)c(F)cc1Oc1c(F)cc(C3=CCOCC3)cc12` [Example 881, (4S)-7′-(3,6-dihydro-2H-pyran-4-yl)-3′,5′-difluoro-2′-(3-pyridinyl)spiro[1,3-thiazole-4,9′-xanthen]-2-amine], the figures for the IC50 in experiment [1] and in experiment [2] (setting [3]) were 0.0005 µM and 0.023 µM, respectively.

`CN1CCN(c2cccc(-c3ccc4c(c3)[C@@]3(COC(N)=N3)c3cc(Cl)ncc3O4)c2)CC1(C)C` [Example 531, (5S)-3-chloro-7-(3-(3,3,4-trimethyl-1-piperazinyl)phenyl)spiro[chromeno[2,3-c]pyridine-5,4′-[1,3]oxazol]-2′-amine]: the IC50 worked out at 13.7 µM in experiment [1] and 0.334 µM in experiment [2] (setting [3]).

With `NC1=N[C@]2(CO1)c1cc(Br)ccc1Oc1nc(F)ccc12` [Example 484, (5R)-7-bromo-2-fluorospiro[chromeno[2,3-b]pyridine-5,4′-[1,3]oxazol]-2′-amine], the values for the IC50 in experiment [1] and in experiment [2] (setting [3]) were 24.6 µM and 10 µM, respectively.

As for `NC1=N[C@@]2(CS1)c1cc(-c3cccnc3F)ccc1Oc1c(F)cc(N3CC[C@@H](F)C3)cc12` [Example 1075, (4S)-4′-fluoro-7′-(2-fluoro-3-pyridinyl)-2′-((3R)-3-fluoro-1-pyrrolidinyl)spiro[1,3-thiazole-4,9′-xanthen]-2-amine], the IC50 stood at 0.0015 µM in experiment [1] and 0.015 µM in experiment [2] (HEK293, average IC50).

`COC1CN(c2cc(F)c3c(c2)[C@]2(COC(N)=N2)c2cc(-c4cccnc4F)ccc2O3)C1` [Example 281, (4S)-4′-fluoro-7′-(2-fluoro-3-pyridinyl)-2′-(3-methoxy-1-azetidinyl)spiro[1,3-oxazole-4,9′-xanthen]-2-amine]: the IC50 in experiment [1] worked out at 0.002 µM; in experiment [2] (HEK293, average IC50), 0.0054 µM.

Take `CC1(C#Cc2cnc3c(c2)[C@@]2(COC(N)=N2)c2cc(-c4cnccc4F)c(F)cc2O3)COC1` [Example 622, (5R)-8-fluoro-7-(4-fluoro-3-pyridinyl)-3-((3-methyl-3-oxetanyl)ethynyl)spiro[chromeno[2,3-b]pyridine-5,4′-[1,3]oxazol]-2′-amine]: the values for the IC50 in experiment [1] and in experiment [2] (setting [3]) were 0.105 µM and 0.452 µM, respectively.

Take `NC1=N[C@]2(CO1)c1cc(-c3ccnc(F)c3)ccc1Oc1cnc(Cl)cc12` [Example 392, (5R)-3-chloro-7-(2-fluoro-4-pyridinyl)spiro[chromeno[2,3-c]pyridine-5,4′-[1,3]oxazol]-2′-amine]: the IC50 in experiment [1] worked out at 5.54 µM; in experiment [2] (setting [3]) it was 10 µM.

Regarding `N#Cc1cccc(-c2ccc3c(c2)[C@@]2(COC(N)=N2)c2cc(C4=CCOCC4)nc(F)c2O3)c1` [Example 743, 3-((5S)-2′-amino-3-(3,6-dihydro-2H-pyran-4-yl)-1-fluorospiro[chromeno[2,3-c]pyridine-5,4′-[1,3]oxazol]-7-yl)benzonitrile], the IC50 is 0.0004 µM in experiment [1] and 0.006 µM in experiment [2] (HEK293, average IC50).

For the molecule `NC1=N[C@@]2(CC1(F)F)c1cc(-c3cccnc3)ccc1Oc1ncc(-c3cccnc3)cc12` [Example 112, (5S)-4′,4′-difluoro-3,7-di-3-pyridinyl-3′,4′-dihydrospiro[chromeno[2,3-b]pyridine-5,2′-pyrrol]-5′-amine], the IC50 in experiment [1] was determined as 0.0632 µM; in experiment [2] (HEK293, average IC50) it was 2.16 µM.

On to `CC(C)(O)C#Cc1ccc2c(c1)[C@]1(COC(N)=N1)c1cc(-c3cncnc3)c(F)cc1O2` [Example 336, 4-((4R)-2-amino-6′-fluoro-7′-(5-pyrimidinyl)spiro[1,3-oxazole-4,9′-xanthen]-2′-yl)-2-methyl-3-butyn-2-ol], for which the IC50 in experiment [1] is 0.0064 µM; in experiment [2] (HEK293, average IC50), 0.0193 µM.

As to `NC1=N[C@@]2(CO1)c1cc(-c3cccnc3)ccc1Oc1cnc(NCC(F)(F)F)cc12` [Example 404, (5S)-7-(3-pyridinyl)-N~3~-(2,2,2-trifluoroethyl)spiro[chromeno[2,3-c]pyridine-5,4′-[1,3]oxazole]-2′,3-diamine], the IC50 in experiment [1] stood at 0.0313 µM; in experiment [2] (setting [3]) it was 0.163 µM.

For the molecule `CC1(C#Cc2cnc3c(c2)[C@]2(COC(N)=N2)c2cc(-c4cnccc4F)ccc2O3)COC1` [Example 104, (S)-7-(4-fluoropyridin-3-yl)-3-((3-methyloxetan-3-yl)ethynyl)-5′H-spiro[chromeno[2,3-b]pyridine-5,4′-oxazol]-2′-amine], the IC50 in experiment [1] came to 0.0011 µM; in experiment [2] (HEK293, average IC50), 0.012 µM.

Consider `CC#Cc1cncc(-c2ccc3c(c2)[C@@]2(COC(N)=N2)c2cc(-c4cnn(C)c4)cnc2O3)c1` [Example 944, (5S)-3-(1-methyl-1H-pyrazol-4-yl)-7-(5-(1-propyn-1-yl)-3-pyridinyl)spiro[chromeno[2,3-b]pyridine-5,4′-[1,3]oxazol]-2′-amine], for which the IC50 was found to be 0.0005 µM in experiment [1] and 0.001 µM in experiment [2] (setting [3]).

For the molecule `CC1(C#Cc2cnc3c(c2)C2(CSC(N)=N2)c2cc(-c4cccnc4F)ccc2O3)COC1` (stereo not drawn) [Example 98], the IC50 in experiment [1] was 0.002 µM; in experiment [2] (setting [3]), 0.0046 µM.
